Results taken from patent US20080058211A1, “Method and Composition for the Modulation of Toxin Resistance in Plant Cells” (BOARD OF REGENTS, THE UNIVERSITY OF TEXAS SYSTEM, priority 2006, published 2008).

Columns and labels:
[Ca^2+]cyt = dextran-conjugated calcium green as reporter; cited from earlier work
roots = details: in vivo; cited from earlier work
[1] = test system: ATMEKK1, ATMPK3, ATPK19, ERF2, ERF3, ERF4 and ACS6 genes; details: cited from earlier work
[2] = test system: root hairs of Arabidopsis thaliana; details: cited from earlier work; for induction of membrane depolarization: applied nucleotide or phosphate
Arabidopsis pollen = test: in vitro pollen germination (Arabidopsis); assay type: cell-based, Arabidopsis thaliana
Description: Effects of Extracellular ATPγS and AMPαS on Pollen Germination. Arabidopsis pollen was germinated in pollen germination media (PGM) containing from about zero to about 400 μM ATPγS or AMPαS. […] The method of collection included vortexing flowers in PGM creating a homogenous suspension of pollen from tens to hundreds of flowers. This method caused the release of a small amount of ATP, 2-5 μM into the PGM (data not shown).
The nitric oxide signaling pathway mediates the inhibition of Arabidopsis pollen germination by ATPγS. To examine the downstream effectors involved in the inhibition of Arabidopsis pollen germination by ATPγS, different agonists and antagonists of the known nitric oxide signaling pathway were examined. […] Some of the nitric oxide signaling pathway agonists are water soluble while others are DMSO soluble.
Strains and Growth Conditions. For the experiments related to the nitric oxide-ATP signaling relationship, all Arabidopsis thaliana plants were ecotype Wassilewskija (WS), and Medicago truncatula plants were strain A17. All of the plants were grown in Metro-Mix 200 soil at 24° C. with constant light. In vitro Pollen Germination. Arabidopsis flowers in stage 12-14 (Smyth et al., 1990) or Medicago truncatula flowers in stage F3 (Firnhaber et al., 2005) were collected and vortexed for 1 min in pollen germination media (PGM) (0.01% boric acid, 1 mM MgSO4, 1 mM CaCl2, 1 mM Ca(NO3)2, 5 mM HEPES, 18% Sucrose pH 7.0). The supernatant containing the pollen was collected by pipet, and up to three rounds of vortexing of the same pollen could be pooled together. The pollen suspended in PGM was then added in 10-12 μL drops to 400 μL PGM+1% agar that had been spread as a thin film across a microscope slide. The slides and pollen were then placed into humidity chambers, petri dishes with water saturated kimwipes, and allowed to germinate at 26° C. overnight. Pictures of the germinated pollen were taken with a digital camera attached to a brightfield microscope at 40×. The digital images were scored for the percent of pollen germinated using the AlphaEase software from Alpha Innotech. Pollen with tubes that were shorter than the diameter of the pollen grain were not counted as germinated or non-germinated. The chemicals: ATPγS, AMPαS, N2, 2-O-dibutyrylguanosine 3′:5′-cyclic monophospohate (Dib cGMP), Sildenafil citrate (Viagra™, Pfizer), and 2-(N,N-Diethylamino)-diazenolate 2-oxide (NONOate) were added to the pollen/PGM suspension prior to adding the drops to the PGM+1% agar. The chemicals 1H-[1,2,4]Oxadiazolo[4,3,-a]quinoxalin-1-one (ODQ), N-[4-[1-(3-Aminopropyl)-2-hydroxy-2-nitrosohydrazino]butyl]-1,3-propanediamine (SNAP), and 3-isobutyl-1-methylxanthine (IBMX) were diluted in DMSO and added to the pollen/PGM suspension to a final concentration of DMSO of 0.1%.
For successful pollen germination it was critical for the plants to be healthy and growing in slightly dry soil. To achieve this, the plants were briefly watered 1-2 days before the experiment. As Johnson-Brousseau and McCormick note in their paper (Johnson-Brousseau and McCormick 2004), a solid base is necessary for best in vitro germination of Arabidopsis pollen. The pollen would not germinate in liquid PGM if not overlaid on a solid PGM+1% agar base, and the vortexing and deposition of the pollen/PGM suspension needed to take place in less than 30 minutes or germination rates dropped considerably.

Δ[Ca^2+]cyt = details: co-application with OGA; cited from earlier work
[3] = test system: [Ca^2+]cyt in excised roots; details: cited from earlier work; for effect on [Ca2+]cyt: 10 mM CaCl2; for suppression of the response of roots to eATP: antagonist or channel blocker with eATP
Arabidopsis leaves = details: cited from earlier work
[4] = test system: nitric oxide levels in elongating Arabidopsis pollen tubes; test: nitric oxide in elongating pollen tubes, DAF-2D fluorescence; assay type: cell-based, Arabidopsis thaliana; details: 125 μM
Description: Increased extracellular ATPγS increases nitric oxide production in elongating pollen tubes. In addition to using agonists and antagonists to indirectly study the relationship of eATPγS and nitric oxide, direct measurements of increases in nitric oxide after application of ATPγS and AMPαS were examined. Pollen grains have a high level of auto-fluorescence and the nitric oxide levels in elongating Arabidopsis pollen tubes were determined using DAF-2D, a fluorescent marker for the presence of nitric oxide that was dissolved in DMSO. Elongating pollen tubes were treated with DAF-2D alone or with ATPγS or AMPαS.
Measurements of NO in growing pollen tubes treated with ATPγS or AMPαS. Pollen was germinated as described for the pollen elongation measurements. After 1-2 hours when pollen tubes were clearly visible, 90 μL of PGM containing 5 μM 4,5-diaminofluorescein diacetate (DAF-2D, Molecular Probes) with or without ATPγS or AMPαS was added. […] Using Image J, the average fluorescence for the pollen tubes on each slide and each time point were determined. Since background fluorescence for each slide varied, three areas where no pollen tubes were present were averaged and subtracted from the pollen tube averages for each slide. Pollen tubes with and without nucleotides were compared to each other at similar time points to determine if there was a difference in fluorescence.

Arabidopsis pollen tubes = test: pollen tube elongation; assay type: cell-based, Arabidopsis thaliana
Description: Arabidopsis pollen tube elongation is inhibited by ATPγS. As vesicles fuse to deliver membranes to the tip of elongating pollen tubes, ATP is likely to be released. So ATPγS and AMPαS were investigated for their ability to affect pollen tube elongation. After pollen tubes had begun to grow, from about 0 to about 250 μM ATPγS or AMPαS were added and the subsequent growth rate was determined.
Blocking the nitric oxide signaling pathway reverses the inhibition of Arabidopsis elongation by ATPγS. The inhibition of Arabidopsis pollen tube elongation was also mediated via the NO signaling pathway. Pollen tube growth rates were measured in 0.5% DMSO with and without 100 μM ATPγS.
Measurements of pollen tube elongation. Pollen was germinated as described above except 10 μL drops of pollen/PGM suspension were added to 60 μL of PGM+1% agar that had been deposited into a concavity slide. The pollen was allowed to germinate for 1-2 h, so that pollen tubes were clearly visible. Then 90 μL of PGM or PGM containing ATPγS, AMPαS, DMSO or ODQ was added and a photo was taken using a brightfield microscope at 40×. The coordinates of each photo were noted, so that the exact pollen tubes could be photographed 50-60 minutes later. Using Image J, the pollen tube lengths for individual pollen tubes were measured and a growth rate of μm/min was determined.

[5] = water-soluble agonist plus 50 μM ATPγS
[6] = DMSO-soluble agonist plus 50 μM ATPγS, 0.1% DMSO

Nc1ncnc2c1ncn2[C@@H]1O[C@H](COP(=O)(O)OP(=O)(O)O)[C@@H](O)[C@H]1O [ADP]
change in [Ca2+]cyt ([Ca^2+]cyt): no change | concentration that could inhibit the straight growth of roots (roots): 3 mM | abundance of mRNAs (MAP kinases, ERF2, ERF3, ERF4, ACS6) ([1]; application of 500 μM): induced an increased abundance | induction of membrane depolarization [2]: induced large depolarizations | EC50 ([2]; dose-response studies, read-out: half-maximal depolarization): ~10 µM

Nc1ncnc2c1ncn2[C@@H]1O[C@H](COP(=O)(O)OP(O)(O)=S)[C@@H](O)[C@H]1O [ADPβS]
agonist of pollen responses (Arabidopsis pollen): active agonist | concentration that could inhibit the straight growth of roots (roots): 0.3 mM | effect on Δ[Ca2+]cyt together with OGA (Δ[Ca^2+]cyt): similarly increased

Nc1ncnc2c1ncn2[C@@H]1O[C@H](COP(O)(O)=S)[C@@H](O)[C@H]1O [AMPS]
effect on Δ[Ca2+]cyt together with OGA (Δ[Ca^2+]cyt): significant inhibitory effect

Nc1ncnc2c1ncn2[C@@H]1O[C@H](COP(=O)(O)O)[C@@H](O)[C@H]1O [AMP]
effect on [Ca2+]cyt ([3]; excised roots): Neither AMP or phosphate induced any significant change | effect on superoxide production (Arabidopsis leaves; equivalent concentrations delivered into the leaves): no significant effect | induction of membrane depolarization [2]: did not

Nc1ncnc2c1ncn2[C@@H]1O[C@H](COP(O)(O)=S)[C@@H](O)[C@H]1O [AMPαS]
agonist of pollen responses (Arabidopsis pollen): is not | percent of germinated pollen (Arabidopsis pollen; PGM with about zero to about 400 μM): did not significantly change | DAF-2D fluorescence [4]: did not significantly change | effect on pollen tube elongation rates (Arabidopsis pollen tubes; up to about 250 μM): no significant effect

Nc1ccn([C@@H]2O[C@H](COP(=O)(O)OP(=O)(O)OP(=O)(O)O)[C@@H](O)[C@H]2O)c(=O)n1 [CTP]
induction of membrane depolarization [2]: did not

CCCC(=O)Nc1nc2c(ncn2C2OC3COP(=O)([O-])OC3C2OC(=O)CCC)c(=O)[nH]1.[Na+] (stereo not drawn) [DibcGMP, N2,2-O-dibutyrylguanosine 3′:5′-cyclic monophospohate]
effect of added NO pathway agonist on pollen germination with ATPγS (Arabidopsis pollen; [5]): caused 50 μM ATPγS to become inhibitory

Nc1nc2c(ncn2[C@@H]2O[C@H](COP(=O)(O)OP(=O)(O)OP(=O)(O)O)[C@@H](O)[C@H]2O)c(=O)[nH]1 [GTP]
induction of membrane depolarization [2]: induced large depolarizations

CC(C)Cn1c(=O)n(C)c(=O)c2[nH]cnc21 [IBMX, 3-isobutyl-1-methylxanthine]
effect of added NO pathway agonist on pollen germination with ATPγS (Arabidopsis pollen; [6]): cause 50 μM ATPγS to inhibit pollen germination

CCN(CC)[N+]([O-])=NO [NONOate, 2-(N,N-Diethylamino)-diazenolate 2-oxide]
effect of added NO pathway agonist on pollen germination with ATPγS (Arabidopsis pollen; [5]): caused 50 μM ATPγS to become inhibitory

O=c1onc2cnc3ccccc3n12 [ODQ, 1H-[1,2,4]Oxadiazolo[4,3,-a]quinoxalin-1-one]
reversal of inhibition of pollen germination (Arabidopsis pollen; 100 μM ODQ with 250 μM ATPγS): reverse the inhibition | effect on pollen tube elongation alone (Arabidopsis pollen tubes; 100 μM ODQ alone, 0.5% DMSO): no effect | reversal of inhibition of pollen tube elongation (Arabidopsis pollen tubes; 100 μM ODQ with 100 μM ATPγS, 0.5% DMSO): reversed the inhibition

Cc1nc(N=Nc2ccc(S(=O)(=O)O)cc2S(=O)(=O)O)c(COP(=O)(O)O)c(C=O)c1O [PPADS, pyridoxalphosphate-6-azophenyl-2′,4′-disulfonic acid]
suppression of the response of roots to eATP [3]: completely suppressed | blocking of ATP-induced superoxide production (Arabidopsis leaves; inhibitor treatment): block the response

NCCCNCCCCN(CCCN)N(O)N=O [SNAP, N-[4-[1-(3-Aminopropyl)-2-hydroxy-2-nitrosohydrazino]butyl]-1,3-propanediamine]
effect of added NO pathway agonist on pollen germination with ATPγS (Arabidopsis pollen; [6]): cause 50 μM ATPγS to inhibit pollen germination

Cc1cn([C@H]2C[C@H](O)[C@@H](COP(=O)(O)OP(=O)(O)OP(=O)(O)O)O2)c(=O)[nH]c1=O [TTP]
induction of membrane depolarization [2]: did not

O=c1ccn([C@@H]2O[C@H](COP(=O)(O)OP(=O)(O)OP(=O)(O)O)[C@@H](O)[C@H]2O)c(=O)[nH]1 [UTP]
concentrations at which ineffective on [Ca2+]cyt ([3]; excised roots): below 100 μM

[Gd] [gadolinium]
suppression of the response of roots to eATP [3]: completely suppressed | blocking of nucleotide-induced gene expression changes ([1]; cells pre-treated): partially blocked

phosphate
effect on [Ca2+]cyt ([3]; excised roots): Neither AMP or phosphate induced any significant change | induction of membrane depolarization [2]: no effect
